# pIC50: −log10 of the molar value.
# Key:
# [1] = system: human articular chondrocytes (hAC); test: Cell viability assay of NS and Doxo- or IR-induced senescent hACs treated with 25HC; format: cell-based; conditions: 11.1 μM after 12 days; Doxo or IR induced senescence
# Method: Figure 7 25HC treatment timeline and its effects on NS and SEN hCMECs, hLSCs, hRPTECs, and hACs All cell types were treated with either DMSO, 250 nM Doxo or 10-Gy IR at the times shown. 25HC treatment was started 24 h after Doxo or IR treatment. Cell viability was measured every 3–5 days for 15 days. Optimal treatment times for maximum senolysis are shown for each cell type: day 15 for hCMECs, day 3 for hLSCs, day 9 for hRPTECs and day 12 for hACs. For qRT-PCR: mean ± SE, n =4, ∗p< 0.05, ∗∗p< 0.01, ∗∗∗p<0.001, ∗∗∗∗p<0.0001 by Dunnett’s multiple comparisons test vs DMSO or NS, For cell viability assays: mean ± SE, n =3, ∗∗p< 0.01, ∗∗∗p<0.001, ∗∗∗∗p<0.0001 vs 0 mM by student’s t test.
# All experiments were performed in incubators at 37 °C, 3% O2 and 5% CO2. Senescence was induced by treatment with either Doxo (250 nM for 24 h) ([Demaria et al., 2017]) or X-irradiation (10 Gy) ([Limbad et al., 2020]). […]
# Cell viability was assessed using a cell counting kit-8 from Dojindo Molecular Technologies, Inc (Cat CK04-20). […] The supernatant was transferred to a new 96-well plate and absorbance read at 450 nm as recommended in the product datasheet. […]
# Cells were treated with DMSO or 250 nM Doxo for 24 h. […] Cell viability was measured every 3–5 days until 15 days. […] Cell viability was measured every 3–5 days until 15 days. […]
# [2] = system: SCs; test: Cell viability assay (cell counting kit-8) of senescent and non-senescent SCs treated with inhibitors; format: cell-based, mouse
# Method: (§1) Figure 3 25HC is a senolytic in multiple muscle cell types (A) Targets, compounds, and mechanisms. (B) Timeline of cell viability assay with inhibitors. Cells were pre-cultured for 24 h, treated with Doxo for 24 h, and then treated with inhibitors. Cell viability was analyzed from day 0–7. (C–E) Effects of inhibitors on viability of FAPs, SCs, and HSMMs. Cells were treated with inhibitors at the indicated concentrations. Cell viability was analyzed on day 3 (HSMMs) or 5 (FAPs and SCs). Blue and red dots indicate non-senescent (NS) and senescent (SEN), respectively. The average value at 0 μM for each group was set at 100% cell viability. p values versus NS were obtained using unpaired two-tailed Student’s t test. ∗p < 0.05, ∗∗p < 0.01, and ∗∗∗p < 0.001.
# Figure 4 EC50 fitted curves (triplicates) of inhibitor effects at 3 and 7 days in FAPS and SCs EC50 was defined as the concentration of inhibitors that provokes a response halfway between baseline and maximum senolytic activity. EC50 values were determined by four- parameter logistic modeling using GraphPad Prism 8.0.
# Hind limb muscles were digested in DMEM containing 0.5% (w/v) collagenase type II (Worthington) for 90 min at 37 °C with trituration and passed through a 40-μm nylon mesh. Erythrocytes were eliminated by treating with BD Pharm Lyse (BD Biosciences). Cells were resuspended in a washing buffer of PBS with 2% FBS and stained with antibodies for 30 min at 4 °C as described ([Kamizaki et al., 2017]). FAPs and SCs were isolated from the suspension by FACS (Aria II, BD Biosciences) using anti-CD31, CD45, Sca-1, PDGFR and VCAM1 antibodies. FAPs were identified as Sca1/PDGFR-positive and CD31-, CD45- and VCAM1-negative cells ([Uezumi et al., 2010]). SCs were identified as VCAM1-positive and CD31-, CD45-, Sca-1 and PDGFR-negative cells ([Liu et al., 2015]).
# (§2) All experiments were performed in incubators at 37 °C, 3% O2 and 5% CO2. Senescence was induced by treatment with either Doxo (250 nM for 24 h) ([Demaria et al., 2017]) or X-irradiation (10 Gy) ([Limbad et al., 2020]). For cell culture studies using 25HC, it was used at the indicated concentrations in the media.
# (§3) FAPs and SCs were cultured on Matrigel-coated dishes (BD Biosciences) in growth medium (GM) consisting of DMEM plus 10% FBS, 1% penicillin-streptomycin and 10% MyoCult (STEMCELL Technologies) for 7 days. Human myogenic cell HSMMs (Lonza) were maintained according to the manufacturer’s instructions with SkGM-2 medium (Lonza).
# (§4) Cell viability was assessed using a cell counting kit-8 from Dojindo Molecular Technologies, Inc (Cat CK04-20). Cells were incubated with culture media + 10% kit cell viability reagent, 150 μL/well in 96-well plates for 2 h. The supernatant was transferred to a new 96-well plate and absorbance read at 450 nm as recommended in the product datasheet.
# [3] = system: Cdkn1a mRNA and SASP factors in skeletal muscle; test: qRT-PCR of senescence markers, Cryab and SASP factors in skeletal muscles of aged mice given 25HC; format: in vivo, mouse
# [4] = system: human skeletal muscle myoblasts (HSMMs); test: Cell viability assay (cell counting kit-8) of senescent and non-senescent HSMMs treated with inhibitors; format: cell-based; conditions: for pIC50: Homo sapiens, Myoblast, HSMM
# Method: as §1, §2, §3, §4
smiles,measurement,setting,value
"C[C@H](CCCC(C)(C)O)[C@H]1CC[C@H]2[C@@H]3CC=C4C[C@@H](O)CC[C@]4(C)[C@H]3CC[C@]12C [25HC, 25-hydroxycholesterol]",senolysis in hACs,[1],induced significant senolysis
same,viability of senescent versus non-senescent SCs,"[2]; Doxo-induced senescence, viability on day 5",decreased the viability of senescent SCs
same,pIC50,"[2]; Mus musculus, 168 h, SCs, 7 days in culture",5.43
same,Cdkn1a mRNA induction by aging in gastrocnemius and soleus muscles,"[3]; 24–26-month-old mice, both genders, 25HC 50 mg/kg i.p. for 5 days",significantly reduced
same,"expression of SASP factors, including IL6, in skeletal muscle",[3]; mice treated with 25HC (Figures S17 and S18),substantially inhibited
same,viability of senescent versus non-senescent HSMMs,"[4]; Doxo-induced senescence, viability on day 3",significantly decreased cell viability
same,pIC50,"[4]; 72 h, 3 days in culture",5.14
same,pIC50,"[4]; 168 h, 7 days in culture",5.43

# From publication PMC8851282, “Senolysis induced by 25-hydroxycholesterol targets CRYAB in multiple cell types” (iScience, 2022)
